Data set [1] has as its system critically ill patients with either stage I or II Acute Kidney Injury Network (AKIN) criteria. The conditions noted are these: for Urine volume, Hour 1: Hour 1 after FST; for Urine volume, Hour 1 / Urine volume, Hour 2 / Urine volume, Hour 3 / Urine volume, Hour 4 / Urine volume, Hour 5 / Urine volume, Hour 6: mean (s.e.); for Urine volume, Hour 2: Hour 2 after FST; for Urine volume, Hour 3: Hour 3 after FST; for Urine volume, Hour 4: Hour 4 after FST; for Urine volume, Hour 5: Hour 5 after FST; for Urine volume, Hour 6: Hour 6 after FST; for Tolerability / adverse events attributable to the FST: critically ill patients with AKI, well-resuscitated, iv furosemide 1.0 or 1.5 mg/kg, urine output replaced with isotonic fluids when appropriate. The source says: Replacement fluid was not protocolized in this group of subjects. Demographic, clinical data, urine sediment scores, and outcome data were abstracted from the case report forms.
Prior to FST urine was collected. […] In order to minimize the risk of hypovolemia, urine output was replaced ml for ml each hour with either Ringers lactate or normal saline for six hours after the FST. The treating team could elect not to replace the volume if net volume loss was considered clinically desirable.
Urine output was measured hourly for six hours and in total for 24 hours. […] Patients were followed for 14 days or hospital discharge, whichever occurred first. Fractional excretion of sodium was calculated as described in Bagshaw and colleagues. MDRD equation was used to calculate the eGFR as described in Levey and colleagues. Cardiovascular SOFA score and APACHE II score were calculated as previously described.

The test system of a further data set is patients without AKI. The conditions noted are these: previous investigators; cited from earlier work.

Like-named read-outs stand apart in the source and are kept apart here.

Regarding `NS(=O)(=O)c1cc(C(=O)O)c(NCc2ccco2)cc1Cl` [Furosemide], in data set [1] (Combined n = 77, furosemide 1.0 or 1.5 mg/kg iv), the “Urine volume, Hour 1” value is 251 (35.2) ml. Also, in data set [1] (Furosemide Naive n = 29), the “Urine volume, Hour 1” value is 331 (68.5) ml; the “Urine volume, Hour 2” value is on record as 348 (66.6) ml; the “Urine volume, Hour 3” value is recorded as 285 (52.1) ml; the “Urine volume, Hour 4” value is 240 (48.6) ml. Moreover, in data set [1] (Furosemide Naive n = 29), the “Urine volume, Hour 5” value is listed as 204 (35.9) ml and the “Urine volume, Hour 6” value is 167 (33.6) ml. In data set [1] (Non-naive N = 48), the “Urine volume, Hour 1” value is listed as 258 (37.2) ml; the “Urine volume, Hour 2” value was 264 (40.9) ml; the “Urine volume, Hour 3” value is given as 223 (28.6) ml; the “Urine volume, Hour 4” value is reported as 188 (25.4) ml. In data set [1] (Non-naive N = 48), the “Urine volume, Hour 5” value is 157 (22.5) ml and the “Urine volume, Hour 6” value is 147 (19.6) ml. In addition, in data set [1] (Combined n = 77), the “Urine volume, Hour 2” value is 296 (35.8) ml; the “Urine volume, Hour 3” value was 246 (26.6) ml; the “Urine volume, Hour 4” value is recorded as 207 (24.1) ml; the “Urine volume, Hour 5” value is 175 (18.6) ml. Further, the “Urine volume, Hour 6” value in data set [1] (Combined n = 77) was 155 (17.4) ml. Moreover, the “Tolerability / adverse events attributable to the FST” value in data set [1] was “these complications were not observed in this study”. Moreover, the “Tolerability / adverse events attributable to the FST” value in data set [1] (listed as furosemide) is reported as “well tolerated with no episodes of hypotension or any other adverse event deemed attributable to the test”. For the same molecule, the “Time of maximum urine flow rate (UFR) after FST” value in data set [1] (hourly urine output for six hours after iv furosemide) was “within the first two to three hours”. The “Mean UO in response to the challenge” value in data set [1] (in 6 hours after FST) was “over 1.3 liters”. Also, the “Time of maximum diuretic effect” value in the data set with patients without AKI is listed as “within the first three hours”.
